Assay results taken from patent EP0425443A1, “Injectable antiparasitic agent” (CIBA-GEIGY AG, priority 1989, dated 1991).
Converted amounts (≈) assume the structure as drawn.

Experiment: Solubility of the active substance in organic solvents
Format: physicochemical
Details: dmso and n-methylpyrrolidone, organic solvent or mixture; in Dimethylsulfoxid und N-Methylpyrrolidon; Gewicht-pro-Volumen-Prozent; read-out: Solubility (lösen)
Description: Injizierbare Zubereitungen stellen wegen der sehr genauen Dosierbarkeit auch kleiner Wirkstoffmengen, der leichten Anwendbarkeit und der geringfügigen Beunruhigung der zu behandelnden Tiere, insbesondere grösserer Nutztiere, wie beispielsweise Rinder, Schafe, Pferde und Esel, oftmals die günstigste Applikationsart dar. Bei der Verwendung von schwerlöslichen Substanzen wie insbesondere den Benzoylphenylharnstoffen in Form injizierbarer Formulierungen ergeben sich jedoch Probleme, wenn mit ihnen ein wirksamer Plasmaspiegel, d.h., eine gleichmässige Verteilung einer ausreichenden Wirkstoffmenge im Plasma, erreicht werden soll, weil das injizierte Material von der Gewebsflüssigkeit beeinflusst wird und damit beispielsweise die physikalisch-chemischen Eigenschaften besagten Materials so verändert werden können, dass ein erheblicher Anteil des injizierten Materials sehr rasch kristallisiert und dadurch an der Injektionsstelle oder in sehr naher Umgebung davon verbleibt. So lassen sich Benzoylharnstoffe, beispielsweise N-[3-(3-Chlor-5-trifluormethylpyridyl-2-oxy)-4-chlorphenyl]-N'-[2,6-difluorbenzoyl]-hamstoff, in Dimethylsulfoxid und N-Methylpyrrolidon (etwa 35 %, Prozentangaben bedeuten hier und im folgenden Gewichtpro-Volumen-Prozent) lösen. […]

O=C(NC(=O)c1c(F)cccc1F)Nc1ccc(Cl)c(Oc2ncc(C(F)(F)F)cc2Cl)c1 [N-[3-(3-Chlor-5-trifluormethylpyridyl-2-oxy)-4-chlorphenyl]-N'-[2,6-difluorbenzoyl]-harnstoff]
solubility: ~350 mg/mL (≈ 691 mM)
